Source: patent US20230053297A1, “COMPOSITIONS AND METHODS TO INCREASE SERUM DILEUCINE LEVELS” (Ingenious Ingredients, LP, priority 2021, published 2023)

Assay: Plasma dileucine pharmacokinetics after a single dose of leucine or whey protein isolate in healthy men
Conditions: male, human, in vivo
Experimental: Five healthy men between the ages of 18-50 years of age were recruited to participate in this study. Prior to beginning the study, all participants signed an informed consent document and complete a healthy history questionnaire to determine study eligibility.
All participants reported to the laboratory between 06:00-10:00 hours and observing an 8-10 hour fast. For the two days prior to testing, study participants were given a standardized meal plan to help control for changes in dietary intake prior to testing. Upon arrival, participants heart rate, blood pressure, body mass, height and body composition were measured using DEXA. Prior to body composition assessment, study participants were tested for appropriate hydration status. Using standard multiple sample phlebotomy approaches, approximately 10 mL of venous blood was collected from a forearm vein prior to being administrated a single dose of either leucine (2-gram dose) or whey protein isolate (25-gram dose). In a time course fashion, subsequent venous blood samples were collected 30, 60, 90, 120 and 240 minutes after ingestion of their assigned supplement. Participants were provided 250 mL of cold water to ingest after each blood collection. Study participants returned approximately 3-7 days after completion of the previous study visit to complete an identical testing session as previously described while receiving the alternative treatment.

AUC Dileucine: 37.1 ± 20.2 µM·h
Cmax: 610 ± 430 nM
increase of plasma dileucine levels compared to whey protein (as AUC): 40.5%
SMILES: CC(C)C[C@H](N)C(=O)O [leucine]
